“And” between values parts separate entries of the source, which are not always exact repeats. Equal values may be shown once. “Also recorded” adds a separate entry of the source. Read-outs that look alike come from different tables or passages of the source.
Key:
[1] = Induction of diabetes by streptozotocin; assay type: in vivo, rat; conditions: three days following STZ injection, 55 mg·kg^−1 i.v., mean ± SEM
Text: In order to induce diabetes, male Wistar rats (n=28, 303±2.9 g) were divided randomly into diabetic and nondiabetic groups. […] Nondiabetic animals received an equivalent volume of saline. […] Blood glucose and body weight were measure at day 3 following STZ/saline injection and then weekly throughout the study. Diabetes was identified by polydipsia, polyuria and hyperglycemia (>11 mmol·l^−1, Advantage II, Roche Diagnostics, NZ Ltd).

[2] = reported, Kodama et al. 1997; cited from earlier work
[3] = 0.67-670 mg/ml in 0.9% saline, four months at 4° C.
Protocol: The concentrations of the stock formulations were: 0.67 mg/ml, 6.7 mg/ml, 67 mg/ml, and 670 mg/ml. The formulation was then administered to the rats in doses of 0.1 mg/kg, 1 mg/kg, 10 mg/kg, and 100 mg/kg to the animals respectively.

[4] = T2DM and controls
Protocol: Total metal balance studies were performed in a residential metabolic unit. Total fecal outputs were collected daily for 12 days, freeze dried, and analyzed by ICP-MS for content of Cu, Fe, Zn, Ca, Mg, Mn, Cr, […] and Se.

diabetic Wistar rats = conditions: six months of treatment
STZ diabetic rats [5] = test: Isolated working heart: cardiac function after 7 weeks oral trientine in drinking water; conditions: for Heart weight / Left Ventricular wall thickness / Left Ventricular wall thickness per BW / Heart weight (g)/BW (g): trientine weeks 7-13
[6] = 15 days
Protocol: One sample of the solution was stored in the dark at 4° C. and 21° C. in the dark and a third sample was stored at 21° C. in daylight.
The Ultraviolet-visible spectrum of the formulation was initially measured at day 0 and then at day 15. 20 μl aliquots of sample solutions were taken at day 15. For each aliquot 960 μl of 50 mM TRIS buffer and 20p aliquot of Copper Nitrate standard (100 mM—Orion Research Inc) were added.

[7] = normal and diabetic rats, acute i.v. increasing doses
Protocol: Methods were carried out as follows. Spectrophotometric analysis was conducted as described in Example 2. Cu, Fe and Zn in tissue digests were determined at Hill Laboratories (Hamilton, New Zealand) using either a PE Sciex Elan-6000 or PE Sciex Elan-6100 DRC ICP-MS.
Sample pre-treatment was carried out as follows. Heart: Following removal from the animal, the heart was cleaned of excess tissue, rinsed in buffer to remove excess blood, blotted dry and a wet ventricular weight recorded. Using titanium instruments a segment of left ventricular muscle was dissected and placed in a pre-weighed 5.0 ml polystyrene tube. The sample was freeze-dried overnight to constant weight before 0.45 ml of 69% Aristar grade HNO3 was added. The sample tube was heated in a water bath at 65° C. for 60 minutes. The sample was brought to 4.5 ml with Milli-Q H2O. The resulting solution was diluted 2:1 in order to reduce the HNO3 concentration below the maximum permitted for ICP-MS analysis.

[8] = Text: Methods were as follows. Human studies were approved by institutional ethics and regulatory committees. We measured urinary metal excretion in human males with T2DM or matched non-diabetic controls, baseline information on which is shown in Table 9, in a randomized, double blind, placebo-controlled trial. Males with uncomplicated T2DM (Table 9) underwent 12-d elemental balance studies in a fully residential metabolic unit. All foods and beverages were provided. Total daily intake (method of double diets) and excretion (urinary and fecal) of trace elements (Ca, Mg, Zn, Fe, Cu, Mn, Mo, Cr and Se) were determined (ICP MS).
[9] = remark: listed apart in the source
Protocol: (§1) Following surgery and a 20 min stabilization period, the experimental protocol was started. […] Control animals received an equivalent volume of saline. Urine was collected in 15 min aliquots throughout the experiment in pre-weighed polyethylene epindorf tubes. At the end of the experiment a terminal blood sample was taken by cardiac puncture and the separated serum stored at −80° C. until future analysis. Hearts were removed through a rapid mid-sternal thoracotomy and processed as described below.
Mean arterial pressure (MAP), heart rate (HR, derived from the MAP waveform) oxygen saturation (Nonin 8600V Pulse Oximeter, Nonin Medical Inc., Minnesota, USA) and core body temperature, were all continuously monitored throughout the experiment using a PowerLab/16s data acquisition module (AD Instruments, Australia).
Following surgery and a 20 min stabilization period, the experimental protocol was started. […] Urine was collected throughout the experiment in 15 min aliquots.

humans with T2DM = test: 6-month randomized double-blind placebo-controlled trial of oral trientine, LV mass by cardiac MRI; conditions: 6 months' trientine therapy
Text: Subjects (30-70 y) who provided written informed consent were eligible for inclusion if they had: T2DM with HbAu1c>7%; cardiac ejection fraction (echocardiography) ≥45% with evidence of diastolic dysfunction but no regional wall-motion anomalies; no new medications for more than 6 months with no change of β-blocker dose; normal electrocardiogram (sinus rhythm, normal PR Interval, normal T wave and QRS configuration, and isoelectric ST segment); and greater than 90% compliance with single-blinded placebo therapy during a 2-w run-in period. Women were required to be post-menopausal, surgically sterile, or non-lactating and non-pregnant and using adequate contraception.
Before randomization, potentially eligible subjects entered a 4-w single blind run-in phase of two placebo-capsules twice-daily and underwent screening echocardiography, being excluded if regional wall motion abnormalities or impaired LV systolic function (ejection fraction <50%) were detected. In addition, LV diastolic filling was assessed using mitral inflow Doppler (with pre-load reduction) to ensure patients had abnormalities of diastolic filling; no patient with normal mitral filling proceeded to randomisation. […]
At baseline and following 6 months' treatment, LV mass was determined using cardiac MRI, performed in the supine position with the same 1.5 T scanner (Siemens Vision) using a phased array surface coil. […]

STZ diabetic rats [10] = conditions: LCM and TEM
Text: Methods were as follows. Following functional analysis, LV histology was studied by laser confocal (LCM; FIG. 29a-d) and transmission electron microscopy (TEM; FIG. 29e-h). For LCM, LV sections were co-stained with phalloidin to visualize actin filaments, and β1-integrin as a marker for the extracellular space. Ding B, et al., “Left ventricular hypertrophy in ascending aortic stenosis in mice: anoikis and the progression to early failure,” Circulation 101:2854-2862 (2000).
For each treatment, 5 sections from each of 3 hearts were examined by both LCM and TEM. For LCM, LV sections were fixed (4% paraformaldehyde, 24 h); embedded (6% agar); vibratomed (120 pm, Campden); stained for f-actin (Phalloidin-488, Molecular Probes) and β1-integrin antibody with a secondary antibody of goat anti-rabbit conjugated to CY5 (1:200; Ding B, et al., “Left ventricular hypertrophy in ascending aortic stenosis in mice: anoikis and the progression to early failure,” Circulation 101:2854-2862 (2000)); and visualised (TCS-SP2, Leica). For TEM, specimens were post-fixed (1:1 v/v 1% w/v 0s0 M 0s0 M PBS); stained (aqueous uranyl acetate (2% w/v, 20 mm) then lead citrate (3 mm)); sectioned (70 nm); and visualized (CM-12, Phillips).

[11] = remark: listed apart in the source
Text: All animals were fasted overnight prior to surgery but continued to have ad libitum access to deionized water. […] The femoral artery and vein were cannulated with a solid-state blood pressure transducer (Mikrotip™ 1.4F, Millar Instruments, Texas, USA) and a saline filled PE 50 catheter respectively. The ureters were exposed via a midline abdominal incision, cannulated using polyethylene catheters (external diameter 0.9 mm, internal diameter 0.5 mm) and the wound sutured closed. The trachea was cannulated and the animal ventilated at 70-80 breaths·min^−1 with air supplemented with 02 (Pressure Controlled Ventilator, Kent Scientific, Connecticut, USA). The respiratory rate and end-tidal pressure (10-15 cmH2O) were adjusted to maintain end-tidal CO2 at 35-40 mmHg (SC-300 CO2 Monitor, Pryon Corporation, Wisconsin, USA). Body temperature was maintained at 37° C. throughout surgery and the experiment by a heating pad. Estimated fluid loss was replaced with intravenous administration of 154 mmol·l^−1 NaCl solution at a rate of 5 ml·kg^−1·h^−1.
as §1
Urine and tissue analysis was carried out as follows. Instrumentation: A Perkin Elmer (PE) Model 3100 Atomic Absorption Spectrophotometer equipped with a PE HGA-600 Graphite Furnace and PE AS-60 Furnace Autosampler was used for Cu and Fe determinations in urine. Deuterium background correction was employed. A Cu or Fe hollow-cathode lamp (Perkin Elmer Corporation) was used and operated at either […]. The 324.8 nm atomic line was used for Cu and the 248.3 nm atomic line for Fe. The slit width for both Cu and Fe was 0.7 nm. Pyrolytically coated graphite tubes were used for all analyses. The injection volume was 20 μL. A typical graphite furnace temperature program is shown below:
Urine: Urine was collected in pre-weighed 1.5 ml micro test tubes (eppendorf). After reweighing, the urine specimens were centrifuged and the supernatant diluted 25:1 with 0.02 M 69% Aristar grade HNO3. The sample was stored at 4° C. prior to GF-AAS analysis. If it was necessary to store a sample for a period in excess of 2 weeks, it was frozen and kept at −20° C. Serum: Terminal blood samples were centrifuged and serum treated and stored as per urine until analysis. From the trace metal content of serum from the terminal blood sample and urine collected over the final hour of the experiment, renal clearance was calculated using the following equation: […]
Statistical analyses were carried out as follows. All values are expressed as mean±SEM and P values <0.05 were considered statistically significant. Student's unpaired t-test was initially used to test for weight and glucose differences between the diabetic and control groups. For comparison of responses during drug exposure, statistical analyses were performed using analysis of variance (Statistics for Windows v.6.1, SAS Institute Inc., California, USA). Subsequent statistical analysis was performed using a mixed model repeated measures ANOVA design (see Example 4).

[12] = cited from earlier work

CN(N=O)C(=O)N[C@H]1C(O)O[C@H](CO)[C@@H](O)[C@@H]1O (mixture of isomers) [STZ, streptozotocin]
Blood glucose [1]: 25 ± 2 mmol/L

CC(=O)NCCNCCNCCN.Cl [N-acetyl-trientine hydrochloride]
Chelating activity compared with trientine dihydrochloride [2]: significantly lower

NCCNCCNCCN [trientine, N,N′-Bis(2-aminoethyl)-1,2-ethanediamine]
Stability on storage (efficacy as copper chelator) [3]: remains active as a copper chelator
Stability on storage (efficacy as copper chelator) ([3]; listed as trientine hydrochloride): without appreciable deterioration in efficacy
Effect on fecal outputs of Zn, Fe, Ca, Mg, Mn, Cr, Mb or Se [4]: Neither diabetes nor drug had measurable effects
Protection of the heart from development of diabetic damage (cardiomyopathy), as judged by histology (diabetic Wistar rats): appears to protect
Cardiac function versus untreated diabetic controls (STZ diabetic rats [5]; STZ diabetic rats, oral trientine 7 weeks): improved; also recorded: global improvement in cardiac function
Heart weight (STZ diabetic rats [5]; STZ/D7 diabetic rats): 1.18 ± 0.24 g
Left Ventricular wall thickness (STZ diabetic rats [5]; STZ/D7 diabetic rats): 3.79 ± 0.52 mm
Left Ventricular wall thickness per BW (STZ diabetic rats [5]; STZ/D7 diabetic rats): 0.0127 ± 0.0027 mm/g
Heart weight (g)/BW (g) (STZ diabetic rats [5]; STZ/D7 diabetic rats, P < 0.05 vs STZ): 0.0041 ± 0.0005 g/g
Heart weight (STZ diabetic rats [5]; Sham/D7 non-diabetic rats): 1.58 ± 0.05 g
Heart weight (g)/BW (g) (STZ diabetic rats [5]; Sham/D7 non-diabetic rats): 0.0028 ± 0.0001 g/g
Left Ventricular wall thickness (STZ diabetic rats [5]; Sham/D7 non-diabetic rats): 4.03 ± 0.1 mm
Left Ventricular wall thickness per BW (STZ diabetic rats [5]; Sham/D7 non-diabetic rats): 0.0072 ± 0.0003 mm/g
Blood glucose profile versus untreated comparison group (STZ diabetic rats [5]; both treated groups, p = ns): no difference
Indicators for ventricular contraction and relaxation versus untreated diabetic group (STZ diabetic rats [5]; drug treated diabetic group): significantly improved
Trientine treated diabetic hearts still functioning (STZ diabetic rats [5]; increasing after-load, constant pre-load, when 50% of the untreated diabetic hearts had failed): about 90%
Effects on cardiac performance of normal animals (STZ diabetic rats [5]; non-diabetic rats, drug treatment): no adverse effects
Cardiac output (STZ diabetic rats [5]; pre-load increased, after-load held constant, treated diabetic rats): restored to Sham values
Change in ability to chelate copper on storage ([6]; 100 mM in deionized water, 4° C. dark, 21° C. dark, 21° C. daylight): no detectable change
Effect of room light on copper chelation ([6]; 100 mM solution, 21° C. in daylight): no detectable detrimental effect
Effect on the copper content of cardiac tissue [7]: no significant effect
Trientine-evoked urinary Fe excretion ([8]; T2DM and controls, oral 2.4 g): no corresponding increase
Urinary Cu versus placebo ([8]; both groups (T2DM and controls), day 7, oral 2.4 g): increased
Cu excretion from T2DM versus non-diabetic controls following trientine-treatment ([8]; day 7, 2.4-g oral dose, P<0.05): significantly greater
Time to recovery from blood pressure fall ([9]; 100 mg/kg i.v.): 10 min
Effect on blood pressure ([9]; acute i.v. 0.1, 1, 10 and 100 mg/kg): no significant effect
Effect of infusion on MAP and HR ([9]; doses below the highest dose): no effect
Time for MAP to return to pre-dose levels ([9]; highest dose 100 mg/kg i.v.): ≤ 10 min
Maximum decrease in MAP (blood pressure fall) ([9]; highest dose 100 mg/kg i.v., 2 min following administration, 100 mg/kg): 19±4 mmHg and 19+/−4 mmHg
Drug-related adverse events (humans with T2DM): No significant drug-related adverse events
Myocardium from trientine-treated nondiabetics (STZ diabetic rats [10]): appeared normal
Iron excretion versus equivalent volume of saline ([11]; diabetic and nondiabetic rats): not greater
Total iron excretion versus saline ([11]; diabetic and nondiabetic rats): not different
Urinary Cu excretion versus equivalent volume of saline ([11]; diabetic and nondiabetic rats, all doses 0.1-100 mg/kg i.v.): excreted more Cu
Cu excretion in the urine versus saline ([11]; diabetic rats, 0.1 mg·kg^−1 i.v. (lowest dose)): significantly increased
Copper excretion per gram of body weight, diabetic versus nondiabetic animals ([11]; in response to each dose of drug): significantly greater
Total copper excreted over the entire duration of the experiment versus saline controls ([11]; nondiabetic and diabetic rats): significantly increased
Urine excretion versus equivalent volume of saline ([11]; nondiabetic rats, 100 mg·kg^−1 i.v.): increased
Form of urinary Cu by electron paramagnetic resonance spectroscopy ([11]; urine of drug-treated animals): mainly complexed as trientine-Cu^II
Bioavailability of the active species after oral administration [12]: < 10%
